We go through 5 molecules from ChEMBL document CHEMBL1158855, “Study on cytotoxic oxygenated desmosterols isolated from the red alga Galaxaura marginata” (1997).

SMILES strings stand for the structures. Values after ≈ are worked out from the molar mass of the structure shown.

What all share (format): functional
What all share (conditions): read-out: ED50 (the source's name)

In test [1] the test system is A549. Put plainly: Cytotoxicity against human A549 cells by MTT assay. In general terms: Tetrazolium assays rely on reduction of a dye to a coloured formazan, in cell work by metabolically active cells.
Test [2] concerns HT-29. Put plainly: Cytotoxicity against human HT29 cells by MTT assay.
Test [3] deals with KB. In words: Cytotoxicity against human KB cells by MTT assay.
In test [4] the test system is P388. Put plainly: Cytotoxicity against mouse P388 cells by MTT assay.

`C=C(C)C(CC[C@@H](C)[C@H]1CC[C@H]2[C@@H]3C[C@@H](O)C4=CC(=O)CC[C@]4(C)[C@H]3CC[C@]12C)OO` (stereo not given in full): the EC50 in test [1] amounted to 0.58 mg/L (≈ 1.35 µM); in test [2], 0.47 mg/L (≈ 1.09 µM); in test [3] it was 0.79 mg/L (≈ 1.83 µM); in test [4], 0.22 mg/L (≈ 0.511 µM).
Regarding `C=C(C)C(O)CC[C@@H](C)[C@H]1CC[C@H]2[C@@H]3C[C@@H](O)C4=CC(=O)CC[C@]4(C)[C@H]3CC[C@]12C` (stereo not given in full), the EC50 came to 2.37 mg/L (≈ 5.72 µM) in test [1], 0.3 mg/L (≈ 0.724 µM) in test [2], 0.83 mg/L (≈ 2 µM) in test [3] and 0.19 mg/L (≈ 0.458 µM) in test [4].
Consider `C=C(C)C(=O)CC[C@@H](C)[C@H]1CC[C@H]2[C@@H]3CC(=O)C4=CC(=O)CC[C@]4(C)[C@H]3CC[C@]12C`, for which the EC50 in test [1] came to 0.27 mg/L (≈ 0.658 µM); in test [2], 0.3 mg/L (≈ 0.731 µM); in test [3], 0.24 mg/L (≈ 0.585 µM); in test [4], 0.11 mg/L (≈ 0.268 µM).
Turning to `C[C@H](C/C=C/C(C)(C)OO)[C@H]1CC[C@H]2[C@@H]3C[C@@H](O)C4=CC(=O)CC[C@]4(C)[C@H]3CC[C@]12C`, the EC50 in test [1] was determined as 1 mg/L (≈ 2.32 µM); in test [2] it was 0.63 mg/L (≈ 1.46 µM); in test [3], 0.4 mg/L (≈ 0.929 µM); in test [4], 0.28 mg/L (≈ 0.65 µM).
Consider `C[C@H](C/C=C/C(C)(C)O)[C@H]1CC[C@H]2[C@@H]3C[C@@H](O)C4=CC(=O)CC[C@]4(C)[C@H]3CC[C@]12C`, for which the EC50 was 1.54 mg/L (≈ 3.71 µM) in test [1], 0.55 mg/L (≈ 1.33 µM) in test [2], 0.45 mg/L (≈ 1.09 µM) in test [3] and 0.14 mg/L (≈ 0.338 µM) in test [4].
